The text below walks through data of patent US6972296B2, “Carboxylic acid derivatives that inhibit the binding of integrins to their receptors” (Encysive Pharmaceuticals Inc., priority 1999, dated 2005).

The target of the first experiment is T1, α4β1 integrin (Homo sapiens, UniProt P05556+P13612).
T1 construct: endogenous in cells; host or cells: Ramos cells
T1 sequence (P13612 34-1032): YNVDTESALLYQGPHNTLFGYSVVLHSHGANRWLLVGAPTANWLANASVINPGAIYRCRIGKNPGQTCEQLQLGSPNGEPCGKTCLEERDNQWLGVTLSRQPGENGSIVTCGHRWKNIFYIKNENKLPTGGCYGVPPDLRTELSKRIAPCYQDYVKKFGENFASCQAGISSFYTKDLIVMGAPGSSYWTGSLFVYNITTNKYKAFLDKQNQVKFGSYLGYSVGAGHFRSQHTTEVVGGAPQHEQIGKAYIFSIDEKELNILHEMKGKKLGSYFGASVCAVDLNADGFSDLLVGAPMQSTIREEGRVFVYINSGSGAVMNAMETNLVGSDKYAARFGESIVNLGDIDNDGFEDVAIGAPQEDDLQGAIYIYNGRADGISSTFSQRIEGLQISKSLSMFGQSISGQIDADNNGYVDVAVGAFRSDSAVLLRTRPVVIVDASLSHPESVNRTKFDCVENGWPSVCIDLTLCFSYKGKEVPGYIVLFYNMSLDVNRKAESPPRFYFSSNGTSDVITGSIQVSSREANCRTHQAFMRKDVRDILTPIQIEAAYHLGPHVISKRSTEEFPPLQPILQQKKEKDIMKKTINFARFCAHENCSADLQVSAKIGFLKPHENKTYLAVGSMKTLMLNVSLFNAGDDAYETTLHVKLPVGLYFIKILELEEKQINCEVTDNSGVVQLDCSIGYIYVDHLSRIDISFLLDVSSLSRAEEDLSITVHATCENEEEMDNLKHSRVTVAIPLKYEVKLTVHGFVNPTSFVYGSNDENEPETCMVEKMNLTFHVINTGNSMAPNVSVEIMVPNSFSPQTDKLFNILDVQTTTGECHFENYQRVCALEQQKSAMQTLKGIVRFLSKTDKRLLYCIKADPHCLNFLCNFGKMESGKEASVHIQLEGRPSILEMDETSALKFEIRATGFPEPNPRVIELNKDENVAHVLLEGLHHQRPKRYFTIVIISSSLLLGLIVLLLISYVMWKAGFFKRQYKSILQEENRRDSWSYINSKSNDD
T1 sequence (P05556 21-798): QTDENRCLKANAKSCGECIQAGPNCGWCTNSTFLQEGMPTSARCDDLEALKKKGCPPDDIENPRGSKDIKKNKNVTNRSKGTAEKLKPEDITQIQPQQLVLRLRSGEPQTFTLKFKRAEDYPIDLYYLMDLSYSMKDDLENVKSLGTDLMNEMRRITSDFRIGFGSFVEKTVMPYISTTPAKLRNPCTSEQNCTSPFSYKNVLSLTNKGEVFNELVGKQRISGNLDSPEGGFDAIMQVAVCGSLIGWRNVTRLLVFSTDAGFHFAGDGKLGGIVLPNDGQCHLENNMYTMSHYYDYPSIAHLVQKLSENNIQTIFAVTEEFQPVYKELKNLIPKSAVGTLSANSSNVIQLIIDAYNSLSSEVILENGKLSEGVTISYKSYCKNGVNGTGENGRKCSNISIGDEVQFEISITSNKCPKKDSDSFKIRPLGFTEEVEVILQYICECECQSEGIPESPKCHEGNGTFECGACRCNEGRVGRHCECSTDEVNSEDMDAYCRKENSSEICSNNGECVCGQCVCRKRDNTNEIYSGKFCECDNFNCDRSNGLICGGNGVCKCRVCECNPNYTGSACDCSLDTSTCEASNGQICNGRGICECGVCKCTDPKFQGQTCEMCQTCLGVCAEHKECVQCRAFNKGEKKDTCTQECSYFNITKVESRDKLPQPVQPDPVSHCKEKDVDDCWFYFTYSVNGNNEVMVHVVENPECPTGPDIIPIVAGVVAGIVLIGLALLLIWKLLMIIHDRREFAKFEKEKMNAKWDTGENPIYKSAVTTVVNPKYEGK
The experiment can be described thus: Adhesion of calcein-labeled Ramos cells to CS1 (fibronectin) peptide conjugated ovalbumin. In kind it is cell-based. The conditions noted are these: Table 2; Ramos cell adhesion to CS1 conjugated ovalbumin, 30 minutes at 37° C. Here is the method:
A procedure in which a 26-amino acid peptide containing the CS1 sequence of fibronectin with an N-terminal Cys ([…]) was coupled to maleimide activated ovalbumin was used to determine the efficacy of the compounds synthesized. Bovine serum albumin (BSA) and CS1 conjugated ovalbumin were coated onto 96-well polystyrene plates at 0.5 μg/ml in TBS (50 mM TRIS, pH 7.5; 150 mM NaCl) at 4° C. for 16 hours. The plates were washed three times with TBS and blocked with TBS containing 3% BSA at room temperature for 4 hours. Blocked plates were washed three times in binding buffer (TBS; 1 mM MgCl2; 1 mM CaCl2; 1 mM MnCl2) prior to assay. Ramos cells fluorescently labeled with calcein AM were resuspended in binding buffer (10^7 cells/ml) and diluted 1:2 with same buffer with or without compound. 100 μM of compound was added. The cells were added immediately to the wells (2.5×10^5 cells/well) and incubated for 30 minutes at 37° C. Following three washes with binding buffer, adherent cells were lysed and quantitated using a fluorometer. IC50 is defined as the dose required to give 50% inhibition, measured in μM for Tables 2 and 4. The lower the IC50 value and the greater the percentage of inhibition, the more efficient the compound is at prevention of cell adhesion.
As a reminder, the IC50 is the concentration that inhibits the measured activity by half. `Cc1ccccc1NC(=O)Nc1ccc(Cn2cccc(NC(=O)N[C@@H](CC(=O)O)c3ccc4c(c3)OCO4)c2=O)cc1`: the IC50 is 1 nM.
Same read-out and setting: as for `O=C(O)C[C@H](NC(=O)N[C@@H]1CCCN(Cc2cccs2)C1=O)c1ccc2c(c1)OCO2`, the figure is 2000 nM; as for `O=C(O)C[C@H](NC(=O)N[C@H]1CCCCN(Cc2cccs2)C1=O)c1ccc2c(c1)OCO2`, 15 nM; as for `Cc1ccccc1NC(=O)Nc1ccc(CN2CCC[C@H](NC(=O)N[C@@H](CC(=O)O)c3ccc4c(c3)OCO4)C2=O)cc1`, 0.3 nM.
Same read-out and setting: as for `CCCCN(C(=O)N[C@@H](CC(=O)O)c1ccc2c(c1)OCO2)c1cccn(Cc2cccs2)c1=O`, the figure is 20000 nM.

The experiment is the same for the next values; noted with them: Table 3; Ramos cell adhesion to CS1 conjugated ovalbumin, 30 minutes at 37° C.
With `O=C(O)CC(NC(=O)Nc1c(O)ccn(Cc2ccccc2Cl)c1=O)c1cccc(Cl)c1` (stereo not drawn), the IC50 is 30 nM.
On to `O=C(O)CC(NC(=O)Nc1c(O)ccn(Cc2ccccc2Cl)c1=O)c1ccc(Cl)cc1` (stereo not drawn), for which the IC50 was 30 nM.
`O=C(O)CC(NC(=O)Nc1c(O)ccn(Cc2ccccc2Cl)c1=O)c1ccc(Cl)c(Cl)c1` (stereo not drawn): the IC50 is 40 nM.
Take `Cc1ccn(Cc2ccccc2Cl)c(=O)c1NC(=O)N[C@H](C)CC(=O)O`: the IC50 is 300 nM.
In the case of `O=C(O)C[C@H](NC(=O)Nc1c(O)ccn(Cc2ccccc2Cl)c1=O)c1ccc2c(c1)OCO2`, the IC50 was 20 nM.
Same read-out and setting: under `Cc1ccc([C@H](CC(=O)O)NC(=O)Nc2c(Nc3ccccn3)ccn(Cc3ccccc3Cl)c2=O)cc1` stands 15 nM.
Still for that read-out and setting: under `Cc1ccc([C@H](CC(=O)O)NC(=O)Nc2c(NCc3ccccn3)ccn(Cc3ccccc3Cl)c2=O)cc1` stands 15 nM.
As for `Cc1ccc([C@H](CC(=O)O)NC(=O)Nc2c(NCc3cccnc3)ccn(Cc3ccccc3Cl)c2=O)cc1`, the IC50 is 20 nM.
The same measure, in the same setting: as for `Cc1ccc([C@H](CC(=O)O)NC(=O)Nc2c(Nc3ccccc3)ccn(Cc3ccccc3Cl)c2=O)cc1`, the figure is 20 nM; as for `CCCc1ccn(Cc2ccccc2Cl)c(=O)c1NC(=O)N[C@@H](CC(=O)O)c1ccc(C)cc1`, 4 nM.
On the same count and under the same terms, as for `Cc1ccc([C@H](CC(=O)O)NC(=O)Nc2c(C)nc(C)n(Cc3ccccc3Cl)c2=O)cc1`, the figure is 10 nM; as for `Cc1ccc([C@H](CC(=O)O)NC(=O)Nc2c(N3CCOCC3)ccn(Cc3ccccc3Cl)c2=O)cc1`, 1 nM; as for `Cc1ccc([C@H](CC(=O)O)NC(=O)Nc2c(N3CCN(C)CC3)ccn(Cc3ccccc3Cl)c2=O)cc1`, 3 nM.
On to `COCCOCCOCCOc1ccn(Cc2ccccc2Cl)c(=O)c1NC(=O)N[C@@H](CC(=O)O)c1ccc(C)cc1`, for which the IC50 is 2 nM.
Turning to `COCCOCCOc1ccn(Cc2ccccc2Cl)c(=O)c1NC(=O)N[C@@H](CC(=O)O)c1ccc(C)cc1`, the IC50 is 2 nM.
The same measure, in the same setting: as for `Cc1ccc([C@H](CC(=O)O)NC(=O)Nc2c(Nc3cc(C)no3)ccn(Cc3ccccc3Cl)c2=O)cc1`, the figure is 15 nM; as for `COc1ccn(Cc2ccccc2Cl)c(=O)c1NC(=O)N[C@@H](CC(=O)O)c1ccc(C)cc1`, 20 nM.
As to `Cc1ccc([C@H](CC(=O)O)NC(=O)Nc2c(F)ccn(Cc3ccccc3Cl)c2=O)cc1`, the concentration for half-maximal inhibition (IC50) was 15 nM.
Turning to `O=C(O)C[C@H](NC(=O)Nc1c(O)ccn(Cc2ccccc2Cl)c1=O)c1cccc(F)c1`, the IC50 was 40 nM.
The same measure, in the same setting: under `O=C(O)C[C@H](NC(=O)Nc1c(O)ccn(Cc2ccccc2Cl)c1=O)c1ccc(C(F)(F)F)cc1` stands 25 nM; under `CC(C)(C)c1ccc([C@H](CC(=O)O)NC(=O)Nc2c(O)ccn(Cc3ccccc3Cl)c2=O)cc1`, 400 nM.
In the case of `O=C(O)C[C@H](NC(=O)Nc1c(O)ccn(Cc2ccccc2Cl)c1=O)c1ccc(F)cc1`, the IC50 is 30 nM.
Same read-out and setting: under `COc1cc([C@H](CC(=O)O)NC(=O)Nc2c(O)ccn(Cc3ccccc3Cl)c2=O)cc(OC)c1OC` stands 20 nM; under `COc1ccc([C@H](CC(=O)O)NC(=O)Nc2c(C)ccn(Cc3ccccc3Cl)c2=O)cc1C`, 15 nM.
Still for that read-out and setting: as for `Cc1ccc([C@H](CC(=O)O)NC(=O)Nc2c(C)ccn(Cc3ccccc3F)c2=O)cc1`, the figure is 20 nM; as for `Cc1ccc([C@H](CC(=O)O)NC(=O)Nc2c(C)ccn(Cc3ccc(Cl)cc3Cl)c2=O)cc1`, 30 nM.
Still for that read-out and setting: as for `Cc1ccc([C@H](CC(=O)O)NC(=O)Nc2c(C)ccn(Cc3c(Cl)cccc3Cl)c2=O)cc1`, the figure is 20 nM.
As to `Cc1ccc([C@H](CC(=O)O)NC(=O)Nc2c(-c3ccccn3)nc(C)n(Cc3ccccc3)c2=O)cc1`, the IC50 was 25 nM.
Still for that read-out and setting: under `Cc1ccc([C@H](CC(=O)O)NC(=O)Nc2c(Br)ccn(Cc3ccccc3Cl)c2=O)cc1` stands 20 nM.
Still for that read-out and setting: as for `Cc1ccc([C@H](CC(=O)O)NC(=O)Nc2c(Cl)ccn(Cc3ccccc3Cl)c2=O)cc1`, the figure is 20 nM.
On the same count and under the same terms, under `Cc1ccc([C@H](CC(=O)O)NC(=O)Nc2c(C)ccn(Cc3ccccc3)c2=O)cc1` stands 30 nM.

The same experiment, now with this note: Table 4; Ramos cell adhesion to CS1 conjugated ovalbumin, 30 minutes at 37° C.
On to `O=C(O)CC(NC(=O)Nc1c(O)ccn(Cc2ccccc2Cl)c1=O)c1cccc(Cl)c1` (stereo not drawn), for which the IC50 is 30 nM.
Still for that read-out and setting: under `O=C(O)CC(NC(=O)Nc1c(O)ccn(Cc2ccccc2Cl)c1=O)c1ccc(Cl)cc1` (stereo not drawn) stands 30 nM; under `O=C(O)CC(NC(=O)Nc1c(O)ccn(Cc2ccccc2Cl)c1=O)c1ccc(Cl)c(Cl)c1` (stereo not drawn), 40 nM.
On the same count and under the same terms, under `O=C(Nc1cccn(Cc2ccccc2Cl)c1=O)N[C@@H](C(=O)O)c1ccccc1` stands 80000 nM; under `O=C(Nc1cccn(Cc2ccccc2Cl)c1=O)N[C@H](Cc1ccccc1)C(=O)O`, 50000 nM; under `O=C(O)C[C@@H](NC(=O)Nc1cccn(Cc2ccccc2Cl)c1=O)c1ccc2c(c1)OCO2`, 2000 nM.
Same read-out and setting: under `Cc1ccc(Cn2cccc(NC(=O)N[C@@H](CC(=O)O)c3ccc4c(c3)OCO4)c2=O)cc1` stands 1000 nM; under `O=C(O)C[C@H](NC(=O)Nc1cccn(CCc2cccs2)c1=O)c1ccc2c(c1)OCO2`, 15000 nM; under `O=C(O)C[C@H](NC(=O)Nc1cccn(Cc2ccccc2)c1=O)c1ccc2c(c1)OCO2`, 500 nM.
On to `O=C(O)C[C@H](NC(=O)Nc1ccc(=O)n(Cc2ccccc2)c1)c1ccc2c(c1)OCO2`, for which the IC50 is 500 nM.
Same read-out and setting: under `O=C(O)C[C@H](NC(=O)Nc1cccn(Cc2cccs2)c1=O)c1ccc2c(c1)CCO2` stands 140 nM; under `O=C(O)C[C@H](NC(=O)Nc1cccn(Cc2cccs2)c1=O)c1cccc(F)c1`, 3000 nM.
Same read-out and setting: under `CC(C)(C)c1ccc([C@H](CC(=O)O)NC(=O)Nc2cccn(Cc3cccs3)c2=O)cc1` stands 2000 nM; under `O=C(O)C[C@H](NC(=O)Nc1cccn(Cc2cccs2)c1=O)c1ccc(F)c(C(F)(F)F)c1`, 350 nM.
On the same count and under the same terms, under `Cc1ccc([C@H](CC(=O)O)NC(=O)Nc2cccn(Cc3ccccc3C)c2=O)cc1` stands 100 nM.
As for `Cc1ccc([C@H](CC(=O)O)NC(=O)Nc2cccn(Cc3ccccc3C(F)(F)F)c2=O)cc1`, the IC50 is 1000 nM.
Same read-out and setting: under `Cc1ccc([C@H](CC(=O)O)NC(=O)Nc2cccn(Cc3ccccc3-c3ccccc3)c2=O)cc1` stands 2500 nM; under `COc1cc([C@H](CC(=O)O)NC(=O)Nc2cccn(Cc3ccccc3Br)c2=O)cc(OC)c1OC`, 80 nM.
On the same count and under the same terms, under `Cc1ccc([C@H](CC(=O)O)NC(=O)Nc2cccn(Cc3ccccc3Br)c2=O)cc1` stands 50 nM; under `Cc1cc(C)cc([C@H](CC(=O)O)NC(=O)Nc2cccn(Cc3ccccc3Cl)c2=O)c1`, 100 nM; under `O=C(O)C[C@H](NC(=O)Nc1cccn(Cc2ccccc2Cl)c1=O)c1ccc2c(c1)CCO2`, 40 nM.
With `Cc1cc([C@H](CC(=O)O)NC(=O)Nc2cccn(Cc3ccccc3Cl)c2=O)ccc1O`, the IC50 was 70 nM.
The same measure, in the same setting: under `COc1ccc([C@H](CC(=O)O)NC(=O)Nc2cccn(Cc3ccccc3Cl)c2=O)cc1C` stands 40 nM.
Same read-out and setting: under `Cc1ccc([C@H](CC(=O)O)NC(=O)Nc2cccn(Cc3ccccc3Cl)c2=O)cc1` stands 100 nM.
Same read-out and setting: under `Cc1ccc([C@H](CC(=O)O)NC(=O)Nc2cccn(Cc3ccccc3Cl)c2=O)cc1C` stands 90 nM.
As to `O=C(O)C[C@H](NC(=O)Nc1cccn(Cc2ccccc2Cl)c1=O)c1ccc(F)c(C(F)(F)F)c1`, the IC50 was 200 nM.
The same measure, in the same setting: under `COc1cc([C@H](CC(=O)O)NC(=O)Nc2cccn(Cc3ccccc3Cl)c2=O)cc(OC)c1OC` stands 40 nM; under `O=C(O)C[C@H](NC(=O)Nc1cccn(Cc2ccccc2Cl)c1=O)c1ccccc1`, 100 nM.
For the molecule `COc1ccc([C@H](CC(=O)O)NC(=O)Nc2cccn(Cc3ccccc3Cl)c2=O)cc1`, the IC50 was 100 nM.
Same read-out and setting: under `Cc1ccc([C@H](CC(=O)O)NC(=O)Nc2cccn(Cc3ccccc3F)c2=O)cc1` stands 100 nM.
In the case of `Cc1ccc([C@H](CC(=O)O)NC(=O)Nc2cccn(Cc3cccc(Cl)c3Cl)c2=O)cc1`, the IC50 was 350 nM.
Still for that read-out and setting: under `Cc1ccc([C@H](CC(=O)O)NC(=O)Nc2cccn(Cc3ccc(Cl)cc3Cl)c2=O)cc1` stands 400 nM; under `Cc1ccc([C@H](CC(=O)O)NC(=O)Nc2cccn(Cc3c(Cl)cccc3Cl)c2=O)cc1`, 200 nM.
Same read-out and setting: under `COc1cccc(Cn2cccc(NC(=O)N[C@@H](CC(=O)O)c3ccc(C)cc3)c2=O)c1` stands 200 nM.
The same measure, in the same setting: under `Cc1ccc([C@H](CC(=O)O)NC(=O)Nc2c(-c3ccccn3)nc(C)n(Cc3ccccc3)c2=O)cc1` stands 25 nM; under `O=C(O)C[C@H](NC(=O)Nc1cccn(Cc2cccs2)c1=O)c1ccc(C(F)(F)F)cc1`, 1500 nM; under `Cc1ccc([C@H](CC(=O)O)NC(=O)Nc2cccn(Cc3cc(Cl)ccc3Cl)c2=O)cc1`, 150 nM.
As for `Cc1cccc([C@H](CC(=O)O)NC(=O)Nc2cccn(Cc3ccccc3Cl)c2=O)c1`, the IC50 is 200 nM.
The same measure, in the same setting: as for `Cc1ccc([C@H](CC(=O)O)NC(=O)Nc2cccn(Cc3cccs3)c2=O)cc1`, the figure is 600 nM.
